Values after ≈ are worked out from the molar mass of the structure shown. Where two headings read alike, the source gives them in different places.
Columns and labels:
[1] = test system: L. infantum (LV50 and Drep-14) and L. major (Empa-12) promastigotes; assay: MTT promastigote viability assay, stated across the three strains; assay type: cell-based, Leishmania infantum, Leishmania major; settings: 72 h; for IC50: Leishmania infantum, LV50, Drep-14, Empa-12, MTT, read-out: Promastigotes IC50, span over the three strains; for Effect on promastigote viability: three strains, at the tested concentrations
Description: (§1) Three Tunisian laboratory strains already described ([Oualha et al., 2019]), originally isolated from distinct clinical manifestations were used in this study: (i) L. infantum LV50 MHOM/TN/94/LV50) strain originating from a bone marrow of a visceral leishmaniasis patient, (ii) L. infantum Drep-14 (MHOM/TN/96/Drep-14) strain isolated from a lesion of a sporadic cutaneous leishmaniasis patient and (iii) L. major Empa-12 (MHOM/TN/2012/Empa-12) strain isolated from a zoonotic cutaneous leishmaniasis patient. Stocks of these parasites obtained after passage through BALB/c mice were used as previously described ([Oualha et al., 2019]). Thawed cryopreserved parasites were cultured at 22°C in RPMI-1640/Glutamax medium (Gibco BRL, Germany) containing penicillin (100 U/mL) and streptomycin (100 μg/mL) supplemented with 10% heat-inactivated Fetal Bovine Serum (FBS) (Gibco BRL, Germany).
(§2) The effect of the selected compounds on the viability of Leishmania promastigotes was evaluated by a colorimetric MTT (3-(4,5-dimethylthiazol-2yl)-2,5-diphenyl tetrazolium bromide) assay. It consists in the reduction of tetrazolium salt to a […] crystal (blue formazan) by the succinate dehydrogenase activity of mitochondria in living cells, which can be quantified by spectrophotometry. Briefly, 90 μL of promastigotes (5 × 10^5 parasites/well) harvested from the stationary growth phase of each strain were added to a 96-well culture plate and incubated with 10 μL of a range of serial dilutions of the selected compounds in technical replicates (final concentration of 1% DMSO per well) ([Ioset et al., 2009]; [Harigua-Souiai et al., 2018]). […] After 72h of incubation at 22°C, 25 μl of MTT solution (5 mg/mL) was added to each well and incubated at 22°C for 4h. Then, 150 μl of DMSO was added to each well to dissolve the blue formazan and the optical density (OD) was measured at 570 nm with a microplate reader ([…], Labsystems). Promastigotes incubated in complete medium containing 1% DMSO were used as negative control. The standard anti-Leishmania drug, Amphotericin B was used as a positive control. All experiments were performed in two technical replicates and repeated three times in independent experiments. The mean percentage of promastigotes viability was calculated from the Optical Density at 570 nm as follows:
(§3) Promastigote viability (%)= [(ODcompound− ODblank)/(ODnegative control −ODblank)]*100
(§4) Results were expressed as the mean value of the percentage of promastigotes viability ± standard deviation (SD).

[2] = test system: L. infantum Drep-14 promastigotes; assay: microbe, parasite or virus in culture; assay type: cell-based; settings: Leishmania infantum
Description: as §1, §2, §3, §4

[3] = test system: L. infantum LV50 promastigotes; assay: MTT-based promastigote viability assay, L. infantum LV50; assay type: cell-based; settings: Leishmania infantum
Description: as §1, §2, §3, §4

[4] = Cytotoxicity assay towards THP-1-derived macrophages (MTT); assay type: cell-based, human; settings: human, THP-1-derived macrophages (PMA-differentiated); for CC50 at 72 h: 72 h of treatment, uninfected cells, MTT; for viability at 72 h, 200 µg/mL: at 200 µg/mL
Method: (§5) Louis, MO, USA). The PMA-treated THP-1 cells were maintained in this condition for 24 h, followed by a 24 h of rest period after the removal of PMA. […] The cytotoxicity towards THP-1-derived macrophages was assessed after 24, 48 and 72 hours of incubation by MTT assay as described above. […] The percentage of viable cells was calculated from the Optical Density at 570 nm as follows: […]

[5] = test system: THP-1-derived macrophages; assay: as above; assay type: cell-based, human; settings: for Cytotoxicity on THP-1-derived macrophages: 24, 48, 72 h
Method: as §5

[6] = test system: L. major and L. infantum amastigotes; assay: Anti-amastigote assay, stated across the three strains; assay type: cell-based, Leishmania infantum, Leishmania major
Method: (§6) THP-1-derived macrophages (5 × 10^4/well) were seeded in each 8-well Labtek slides (Thermo Scientific). Adherent macrophages were obtained as described above, then infected with stationary phase promastigotes of each strain at a ratio 10:1 (10 parasites/macrophage) in RPMI medium containing penicillin (100 U/mL) and streptomycin (100 μg/mL) with 10% fetal bovine serum (Gibco, Brazil) at 37°C in 5% CO2 for 24 h. […] Non-infected control cells were incubated in a supplemented RPMI medium containing 1% DMSO. After 72h of incubation, cells were fixed and stained using May-Grunwald-Giemsa staining with RAL 555 Kit (RAL DIAGNOSTICS, France), following the manufacturer’s instructions. The percentage of infected cells and the total number of internalized parasites per 100 macrophages were determined under immersion oil (magnification of 1000X) using light microscopy. The percentage of amastigotes viability was expressed as the percentage of total number of internalized parasites within treated cells relative to the total number of internalized parasites within control cells treated with 1% DMSO, and calculated as follows:
(§7) Relative amastigote viability (%) = [(number of amastigotes/100 treated cells)/(number of amastigotes/100 treated cells with1% DMSO)] * 100
(§8) The relative percentage of amastigote viability was evaluated to calculate half inhibitory concentrations (IC50). The mean IC50 values were determined by plotting the curves of the logarithm of compound concentrations versus the relative amastigote viability of three independent experiments performed in two technical replicates for each compound fitted into a nonlinear regression model, using GraphPad Prism version 8.0.1. Selectivity Index (SI) values were calculated as the ratio between cytotoxicity and activity against amastigotes and determined for each compound as follows: SI= CC50/IC50.

[7] = test system: L. infantum Drep-14 intracellular amastigotes; assay: Anti-amastigote assay in THP-1-derived macrophages, L. infantum Drep-14; assay type: cell-based, Leishmania infantum; settings: for Selectivity Index (SI): CC50 THP-1 / IC50 amastigotes Drep-14, 72 h; for IC50: Leishmania infantum, Macrophage, Drep-14, intramacrophage, 72 h
Method: as §6, §7, §8

[8] = test system: L. infantum LV50 intracellular amastigotes; assay: Anti-amastigote assay in THP-1-derived macrophages, L. infantum LV50; assay type: cell-based, Leishmania infantum; settings: for Selectivity Index (SI): CC50 THP-1 / IC50 amastigotes LV50, 72 h; for IC50: Leishmania infantum, Macrophage, LV50, intramacrophage, 72 h
Method: as §6, §7, §8

[9] = test system: L. major Empa-12 intracellular amastigotes; assay: Anti-amastigote assay in THP-1-derived macrophages, L. major Empa-12; assay type: cell-based, Leishmania major; settings: for Selectivity Index (SI): CC50 THP-1 / IC50 amastigotes Empa-12, 72 h; for IC50: Leishmania major, Macrophage, Empa-12, intramacrophage, 72 h
Method: as §6, §7, §8

[10] = test system: L. major Empa-12 promastigotes; assay: MTT-based promastigote viability assay, L. major Empa-12; assay type: cell-based; settings: Leishmania major
Description: as §1, §2, §3, §4

[11] = test system: Leishmania (Viannia) braziliensis; set-up: method as in Cazorla et al., 2004; settings: hamsters infected with Leishmania (Viannia) braziliensis, versus Glucantime; ref Cazorla et al., 2004; cited from earlier work
[12] = 72 h, read-out: Promastigotes IC50
[13] = 72 h, read-out: Promastigotes IC50 (in brackets)
[14] = LV50, 72 h, MTT, read-out: Promastigotes IC50
[15] = LV50, 72 h, MTT, read-out: Promastigotes IC50 (in brackets) (converted)
[16] = read-out: THP-1-derived macrophages CC50
[17] = read-out: THP-1-derived macrophages CC50 (in brackets) (converted)
[18] = read-out: Amastigotes IC50 (in brackets) (converted)
[19] = Empa-12, 72 h, MTT, read-out: Promastigotes IC50
[20] = Empa-12, 72 h, MTT, read-out: Promastigotes IC50 (in brackets) (converted)
[21] = 72 h, LV50, Drep-14, Empa-12; intramacrophage, 72 h; read-out: Amastigotes IC50, span over the three strains

Structure (SMILES)	IC50 [1] [µg/mL]	IC50 [2, 12] [µg/mL]	IC50 [2, 13] [µM]	IC50 [3, 14] [µg/mL]	IC50 [3, 15] [µM]	CC50 at 72 h [4, 16] [µg/mL]	CC50 at 72 h [4, 17] [µM]	Cytotoxicity on THP-1-derived macrophages [5]	Selectivity Index (SI) [7]	IC50 ([7]; read-out: Amastigotes IC50) [µg/mL]	IC50 [7, 18] [µM]	Selectivity Index (SI) [8]	IC50 ([8]; read-out: Amastigotes IC50) [µg/mL]	IC50 [8, 18] [µM]	Selectivity Index (SI) [9]	IC50 ([9]; read-out: Amastigotes IC50) [µg/mL]	IC50 [9, 18] [µM]	IC50 [10, 19] [µg/mL]	IC50 [10, 20] [µM]	Effect on promastigote viability [1]	further results
C[C@@H]1[C@H](O)[C@@H](C)/C=C/C=C/C=C/C=C/C=C/C=C/C=C/[C@H](O[C@@H]2O[C@H](C)[C@@H](O)[C@H](N)[C@@H]2O)C[C@@H]2O[C@](O)(C[C@@H](O)C[C@@H](O)[C@H](O)CC[C@@H](O)C[C@@H](O)CC(=O)O[C@H]1C)C[C@H](O)[C@H]2C(=O)O [Amphotericin B]	0.15 to 0.2 (≈ 0.162 to 0.216 µM)	0.2 ± 0.004	0.22	0.15 ± 0.01	0.16	> 5	> 5.41	no cytotoxic effect	> 125.00	0.04 ± 0.006	0.043	> 166.66	0.03 ± 0.004	0.032	> 100.00	0.05 ± 0.005	0.054	0.2 ± 0.01	0.22	–	IC50 ([6]; LV50, Drep-14, Empa-12; intramacrophage, 72 h; read-out: Amastigotes IC50, span over the three strains): 0.03 to 0.05 µg/mL (≈ 0.0325 to 0.0541 µM)
Nc1nc(O)c2ncn(COC(CO)CO)c2n1 [Ganciclovir]	–	–	–	–	–	–	–	–	–	–	–	–	–	–	–	–	–	–	–	no effectiveness	–
CNC[C@H](O)c1cccc(O)c1 [Phenylephrine]	> 200	> 200	> 1200	> 200	> 1200	> 200	> 1200	no significant cytotoxicity	> 4.96	40.2 ± 3.15	241 ± 113	> 5.68	35.2 ± 4.86	211 ± 174	> 2.99	66.8 ± 7.28	400 ± 260	> 200	> 1200	dose-dependent decrease of parasite viability	IC50 ([2]; read-out: Promastigotes IC50 estimated through extrapolation): 275 ± 36.6 µg/mL; IC50 ([3]; LV50, extrapolated beyond tested range (200 µg/mL), GraphPad, read-out: Promastigotes IC50 estimated through extrapolation): 219 ± 25.5 µg/mL; viability at 72 h, 200 µg/mL ([4]; read-out: Macrophage viability): 90 to 100%; IC50 ([10]; Empa-12, extrapolated beyond tested range (200 µg/mL), GraphPad, read-out: Promastigotes IC50 estimated through extrapolation): 266 ± 79.5 µg/mL
CCCC(=O)Nc1ccc(OCC(O)CNC(C)C)c(C(C)=O)c1 (stereo not drawn) [Acebutolol]	69.3 to 146 (≈ 206 to 433 µM)	69.3 ± 5.7	186	146 ± 16.4	390	> 200	> 536	no significant cytotoxicity	> 14.45	13.8 ± 1.41	37.1	> 12.73	15.7 ± 2.75	42.1	> 8.98	22.3 ± 1.59	59.8	103 ± 10.9	276	dose-dependent decrease of parasite viability	viability at 72 h, 200 µg/mL ([4]; read-out: Macrophage viability): 90 to 100%; IC50 [6, 21]: 13.8 to 66.8 µg/mL (≈ 41.1 to 199 µM)
CCc1cc(C(N)=S)ccn1 [Ethionamide]	–	–	–	–	–	–	–	–	–	–	–	–	–	–	–	–	–	–	–	no effectiveness	–
C=C(CC)C(=O)c1ccc(OCC(=O)O)c(Cl)c1Cl [Ethacrynic acid]	–	–	–	–	–	–	–	–	–	–	–	–	–	–	–	–	–	–	–	no effectiveness	–
CCCNC(C)C(=O)Nc1ccccc1C (stereo not drawn) [Prilocaine]	33.1 to 45.8 (≈ 150 to 208 µM)	34.8 ± 3.22	158	45.8 ± 2.46	208	> 200	> 1820	no significant cytotoxicity	> 13.14	30.4 ± 2.3	138	> 15.25	26.2 ± 3.14	119	> 13.02	30.7 ± 2.2	139	33.1 ± 2.3	150	dose-dependent decrease of parasite viability	viability at 72 h, 200 µg/mL ([4]; read-out: Macrophage viability): 90 to 100%; viability ([4]; at the IC50 value on the promastigotes, read-out: Macrophage viability): 90 to 100%; Concentration at which cytotoxic effects start ([5]; 72 h of incubation): 400 µg/mL; IC50 [6, 21]: 13.8 to 66.8 µg/mL (≈ 62.8 to 303 µM)
CCCSc1ccc2nc(NC(=O)OC)[nH]c2c1 [Albendazole]	–	–	–	–	–	–	–	–	–	–	–	–	–	–	–	–	–	–	–	no effectiveness	–
CCN(CC)CCOC(=O)c1ccc(N)cc1 [Procaine]	–	–	–	–	–	–	–	–	–	–	–	–	–	–	–	–	–	–	–	–	Efficacy of intralesional treatment in hamsters [11]: lower efficacy
NS(=O)(=O)c1cc2c(cc1Cl)N=C(CSCc1ccccc1)NS2(=O)=O [Benzthiazide]	–	–	–	–	–	–	–	–	–	–	–	–	–	–	–	–	–	–	–	no effectiveness	–

— article PMC11464777, “Approved drugs successfully repurposed against Leishmania based on machine learning predictions” (Frontiers in Cellular and Infection Microbiology, 2024)
